# Laboratory results from patent US4168206A, “Impregnated disk method for testing antifungal susceptibility” (Philadelphia College of Osteopathic Medicine, priority 1977, dated 1979).
# Where two headings read alike, the source gives them in different places.
# Experiments:
# [1] = test system: C. parapsilosis; assay: MIC by impregnated disk method, Candida parapsilosis; type: cell-based; details: Lodderomyces parapsilosis
# Procedure: (§1) Stock solutions of the antifungal agents to be tested are preferably prepared by diluting the antifungal agents in the proper nutrient medium. It is presently preferred to prepare dilutions in 10 ml of the proper medium to give the following final concentrations when applied to the disks (all quantities in micrograms per milliliter): 0.05, 0.08, 0.09, 0.1; 0.1 increment increases to 0.9, 1.0; 0.5 increment increases to 10.0; and 12.0, 14.0, 20.0, 25.0 and 50.0. Disks have been prepared by placing 0.05 ml of the above dilutions of antifungal agent containing medium on 6.5 mm diameter disks in 0.01 or 0.02 ml increments. The impregnated disks are then allowed to dry at a temperature preferably below about 10° C. […] The disks may also be dried by a lyophilization or freeze drying process.
# (§2) To perform the tests in accordance with the present inventions, disks impregnated with various concentrations of antifungal agent and nutrient medium and a control disk impregnated only with the corresponding nutrient medium are placed on the fungus to be tested which has been applied to the non-nutrient medium. The disks are the inoculated non-nutrient medium are then incubated at a suitable temperature for a sufficient time to promote growth of the fungus. Any temperature is suitable if it will promote growth of the fungus without adversely affecting the fungus or the activity of the antifungal agent or agents tested. The time of incubation can be determined by observing the extent of growth around the control disk. […] The zones of growth or inhibition around the disks were read at 6, 12, 24, 36 and 48 hours after the disks were placed on the tested fungus.
# (§3) The minimum inhibitory concentration is defined as the lowest concentration of antifungal agent which inhibits visible growth. The disks containing concentrations of antifungal agents below the minimum inhibitory concentration show circumscribed growth of the fungus around the disk. Disks containing concentrations of antifungal agent at or above the minimum inhibitory concentration show no circumscribed growth.
# (§4) Clinical isolates of various fungi listed in Table 1 were obtained from different patients diagnosed as having fungal infections. The fungal inocula were prepared by using a 24-48 hour cultures grown in yeast nitrogen base containing 1% glucose and 0.15% asparagine. After centrifuging, the supernatant was removed, the sedimented cells were washed twice with sterile distilled water and a cell suspension was adjusted to 80% transmission at 520 nm using a Beckman DB-GT grating spectrophotometer.
# (§5) Sterile liquified 2% purified agar was placed in petri dishes and allowed to harden. The surface of the agar was inoculated with a sterile cotton swab saturated with a suspension of an organism. The uniformly swabbed plates were then allowed to dry.
# (§6) Disks were prepared using the dilutions described above for amphotericin B, nystatin and 5-fluorocytosine. 0.05 ml of the dilutions of each antifungal agent diluted with the appropriate nutrient medium were pipetted on 6.5 mm diameter disks. The disks were dried at 4° C. after each application. Control disks were also prepared.
# (§7) Several test disks and a control disk were placed in each petri dish containing the inoculated agar. The disks and petri dishes were then incubated at 29° C. and the minimum inhibitory concentration of the various concentrations of the antifungal agents were read at 6, 12, 24, 36 and 48 hours.
# (§8) In 10 duplicate runs with each strain tested, the variation in minimum inhibitory concentration averaged ±0.05 μg/ml.
# [2] = test system: Geotrichum candidum; assay: MIC by impregnated disk method, Geotrichum candidum; type: cell-based; details: read-out: Minimum Inhibitory Concentration, Disk
# Procedure: as §1, §2
# The minimum inhibitory concentration is defined as the lowest concentration of antifungal agent which inhibits visible growth. […]
# Several test disks and a control disk were placed in each petri dish containing the inoculated agar. The disks and petri dishes were then incubated at 29° C. and the minimum inhibitory concentration of the various concentrations of the antifungal agents were read at 6, 12, 24, 36 and 48 hours. […]
# [3] = test system: Geotrichum candidum; assay: MIC by broth dilution method, Geotrichum candidum; type: cell-based; details: read-out: Minimum Inhibitory Concentration, Broth
# Text: (§9) The preparation of the nutrient media, the antifungal agents and the fungi to be tested in the present invention are similar to those reported in S. Shadomy and A. Espinel-Ingroff, "Susceptibility Testing Of Antifungal Agents", Ch. 63, pp. 569-574 in E. H. Lennett, E. H. Spaulding, and J. P. Truant, Eds., Manual Of Clinical Microbiology, 2nd Ed., American Society for Microbiology, Washington, D.C. (1974). This publication describes the susceptibility testing of antifungal agents, namely, amphotericin B, nystatin and 5-fluoro-cytosine (5-FC), by the "broth dilution method" and the "semisolid agar dilution method". At pages 570-571, it is stated:
# as §8
# (§10) *Broth dilution method conducted in accordance with S. Shadomy and E.
# (§11) Espinel-Ingroff, "Susceptibility Testing of Antifungal Agents", Ch. 63,
# (§12) pp. 569-574 in E. H. Spaulding and J. P. Truant, Eds., Manual Of Clinical
# (§13) Microbiology, 2nd Ed., American Society for Microbiology, Washington, […]
# [4] = test system: Saccharomyces cerevisiae; assay: MIC by impregnated disk method, Saccharomyces cerevisiae; type: cell-based; details: Saccharomyces cerevisiae
# Procedure: as §1, §2, §3, §4, §5, §6, §7, §8
# [5] = test system: Trichosporon sp.; assay: MIC by broth dilution method, Trichosporon sp.; type: cell-based; details: Trichosporon, read-out: Minimum Inhibitory Concentration, Broth
# Text: as §9, §8, §10, §11, §12, §13
# [6] = test system: Candida albicans; assay: Minimum fungicidal concentration by disk method; type: cell-based; details: 48 h
# Procedure: Minimum fungicidal concentration is defined as the lowest concentration of antifungal agent from which subcultures were negative or where no overgrowth occurs. In tests of Candida albicans, the minimum inhibitory concentration can usually be determined at about 24 hours. Minimum fungicidal concentration may be determined by incubation for an additional 24 hours. At concentrations below the minimum fungicidal concentration, overgrowth occurs by 48 hours.
# (§14) The minimal fungicidal concentrations of amphotericin B for the first 6 isolates of Candida albicans listed in Table 1 were determined by incubating the disks and organisms for 48 hours. At concentrations below the minimum fungicidal concentration, overgrowth occurred by 48 hours.
# [7] = test system: Candida albicans; assay: Minimum fungicidal concentration by broth dilution method; type: cell-based
# Text: as §9, §14
# [8] = test system: Candida albicans; assay: Susceptibility to combination of antifungal agents on disks (Example 2); type: cell-based; details: Candida albicans isolate
# Text: The method of the present invention also may be used to test combinations of antifungal agents. In this method, more than one antifungal agent of known concentration is impregnated in each test disk.
# Each disk is impregnated with a particular known concentration of at least one particular antifungal agent, except for the control disks. When the susceptibility of a fungus to combinations of antifungal agents is being tested, more than one antifungal agent is impregnated in each test disk.
# The susceptibility of two other isolates to combinations of antifungal agents were tested by combining more than one antifungal agent on each test disk. A series of test disks were prepared containing various combinations of antifungal agents in various concentrations and were used in the method of the present invention. The results of this procedure are summarized in the following specific, non-limiting examples:
# This is a significant reduction in amphotericin B.
# [9] = cited from earlier work
smiles,measurement,setting,value
"C[C@@H]1[C@H](O)[C@@H](C)/C=C/C=C/C=C/C=C/C=C/C=C/C=C/[C@H](O[C@@H]2O[C@H](C)[C@@H](O)[C@H](N)[C@@H]2O)C[C@@H]2O[C@](O)(C[C@@H](O)C[C@@H](O)[C@H](O)CC[C@@H](O)C[C@@H](O)CC(=O)O[C@H]1C)C[C@H](O)[C@H]2C(=O)O [Amphotericin B, amphotericin B]",MIC,"[1]; read-out: Minimum Inhibitory Concentration, Disk, C. parapsilosis isolate 1",0.5 µg/mL
same,MIC,"[1]; read-out: Minimum Inhibitory Concentration, Disk, C. parapsilosis isolate 2",0.6 µg/mL
same,MIC,[2],0.8 µg/mL
same,MIC,[3],0.9 µg/mL
same,MIC,"[4]; read-out: Minimum Inhibitory Concentration, Disk, S. cerevisiae isolate 2",0.6 µg/mL
same,MIC,"[4]; read-out: Minimum Inhibitory Concentration, Disk, Saccharomyces cerevisiae isolate 1",0.4 µg/mL
same,MIC,[5],1.1 µg/mL
same,MFC,"[6]; isolate 3, read-out: Minimum Fungicidal Concentration, Disk",0.9 µg/mL
same,MFC,"[6]; isolate 4, read-out: Minimum Fungicidal Concentration, Disk",0.9 µg/mL
same,MFC,"[6]; isolate 6, read-out: Minimum Fungicidal Concentration, Disk",5 µg/mL
same,MFC,"[6]; read-out: Minimum Fungicidal Concentration, Disk, isolate 1",1.4 µg/mL
same,MFC,"[6]; read-out: Minimum Fungicidal Concentration, Disk, isolate 2",1.6 µg/mL
same,MFC,"[6]; read-out: Minimum Fungicidal Concentration, Disk, isolate 5",1.8 µg/mL
same,MFC,[7]; isolate 1,1.5 µg/mL
same,MFC,[7]; isolate 2,1.6 µg/mL
same,MFC,[7]; isolate 3,0.8 µg/mL
same,MFC,[7]; isolate 4,1.1 µg/mL
same,MFC,[7]; isolate 5,1.6 µg/mL
same,MFC,[7]; isolate 6,6.5 µg/mL
same,amphotericin B susceptibility,"[8]; alone, previously tested",0.8 µg/mL
same,amphotericin B susceptibility,[8]; in combination with tetracycline,0.2 µg/mL
same,stability in acid,[9]; in the presence of acid,unstable in the presence of acid
same,thermal stability,[9]; upon incubation,subject to thermal destruction upon incubation
same,solubility in water,[9]; water,insoluble in water
